Legend:
[1] = system: caspases-3/7 in SW620 cells; experiment: Caspase-Glo assay, effector caspases-3/7 activity; format: cell-based, human; details: for Caspase-3/7 activity, combination with 5-FU / Caspase-3/7 activity, combination with IRT / Caspase-3/7 activity, combination with OxPt: SW620, 24-hour incubation, compared to cytostatic alone; for Induction of caspases-3/7 activity: SW620, compound at IC50, 24-h exposure
Description: (§1) The activities of initiator caspases-8 and -9 and effector caspases-3/7 were assayed using Caspase-Glo Assays (Promega, Madison, USA). The SW620 cells (seeded in a […]) were cultivated in 12-well plates. […] The untreated control cells were incubated in medium containing only 0.1% DMSO. The lysates were collected into microtubes. Caspase-8, Caspase-9 and Caspases-3/7 reagents were prepared according to the manufacturer’s instructions. The lysates (25 μL in each well) were transferred into a white-walled 384-well-plate for the luminometer, at which point 25 μL of Caspase-8 or Caspase-9 or Caspases-3/7 reagents were added to each well. The plate was gently mixed for 30 seconds and then incubated for 30 minutes at room temperature. The luminescence was measured using the luminometer Infinite M200 (Tecan, Männedorf, Switzerland).
(§2) In order to determine whether the observed antiproliferative activity of the prenylflavonoids and naringenin could be explained at least in part by the induction of apoptosis, the activities of initiator (caspase-8 and caspase-9) as well as effector caspases (caspases-3/7) were assessed in the SW620 cells, which were exposed to the studied compounds for 4, 8, and 24 h, with the activities of the caspases measured using a luminescence assay.
(§3) Further, we decided to determine the influence of combinations of the studied flavonoids with cytostatics on ROS formation and the activity of caspases in SW620 cells. Combination effects of flavonoids and cytostatics were investigated at equipotent concentrations of the IC50 values for each compound. ROS production was monitored using a DCFH-DA assay at several time points (0.5, 1, 4, 8, and 24 h) during a 24-hour incubation. The activities of caspases-8, -9, and -3/7 were assessed using a luminescence assay kit at 4, 8, and 24 h of incubation.

SW620 cells [2] = experiment: Cellular ROS formation (H2DCF-DA oxidation); format: cell-based, human; details: for ROS production vs control: SW620, compound alone at its IC50, 0.5-24 h incubation
Description: To assess ROS generation in SW620 cells, a measurement of 2′,7′-dichlorodihydrofluorescein-diacetate (H2DCF-DA) oxidation was used. Cells (seeded in a 96-well plate at a density of 2500 cells/well) were washed with PBS buffer and incubated with 100 μL of 5 μM H2DCF-DA in Hank’s balanced salt solution (HBSS). […] Finally, fluorescence intensity was measured at the excitation and emission wavelengths of 485 nm/525 nm for 50 min at 37 °C using the microplate reader Infinite M200 (Tecan, Männedorf, Switzerland). The cells incubated in HBSS with DMSO only (as a solvent) were used as untreated control samples, while those incubated in the presence of 3% H2O2 were used as a positive control.
As is generally accepted, cancer cells generate more ROS than do normal cells and at the same time, they are sensitive to the effect of agents which augment oxidative stress and thus push these stressed cells beyond their limit. Therefore, the pro-oxidative effect of prenylflavonoids and NAR was tested in the SW620 cells in order to elucidate the observed antiproliferative effects of these compounds. […] ROS production was measured in the SW620 cells incubated with prenylflavonoids or NAR at a concentration equal to their IC50 using a DCFH-DA assay. ROS production was monitored during 24-hour incubation at several time points (0.5, 1, 4, 8, and 24 h).
as §3

SW480 cells = experiment: Neutral red uptake (NRU) cell viability assay, 72 h; format: cell-based, human; details: SW480, 72 h of exposition
Text: (§4) The prenylflavonoids and NAR were pre-dissolved in DMSO, while 5-FU, IRT and OxPt were pre-dissolved in distilled water. […] During screening for antiproliferative effects, SW480, SW620, and CaCo-2 were exposed to various concentrations of individual compounds in culture medium: XH, IXH, 6-PN and 8-PN (1–100 μmol/L), NAR (1–200 µmol/L), 5-FU and IRT (0.1–100 µmol/L), and OxPt (0.1–25 µmol/L). The cells cultured in medium with 0.1% DMSO or 0.2% DMSO (for 8-PN only) were used as untreated control samples. In the case of OxPt, the untreated control sample contained cells cultured in medium only. The cells treated with 10% DMSO served as a positive control. Neutral red uptake (NRU) assay was used to determine the number of viable cells after 72 h of exposition. The effect of prenylflavonoids and NAR on 5-FU, IRT or OxPt efficacy was evaluated using CalcuSyn (ver. 1.1) software.
(§5) In the NRU assay, the cells were cultured in 96-well plates (SW480 and SW620: 2500 cells/well; CaCo-2 cells: 200 cells/well) and exposed to the tested compounds for 72 h. Thereafter, the medium was removed and 100 μL of neutral red-containing medium was added into each well and the plates were incubated at 37 °C for an additional 3 h. Then the cells were washed with 100 μL of PBS and fixed in a solution of 0.5% formaldehyde/1% calcium chloride for 15 minutes. The neutral red dye was extracted from the viable cells with a solvent (50% ethanol/1% acetic acid) by shaking for 30 min at room temperature. The absorbance of solubilized dye was measured using the spectrophotometer Infinite M200 (Tecan, Männedorf, Switzerland) at 540 nm. Each sample was assayed in six parallels and three independent experiments were performed. The viabilities of treated cells were expressed as a percentage of untreated controls (100%).
(§6) All calculations were done using Microsoft Excel and GraphPad Prism 7.03 (GraphPad Software, La Jolla, CA, USA). All values were expressed as mean ± S.D. of a given number of experiments. Statistical significance (evaluated using a one-way ANOVA with Dunett’s test) was acceptable to a level of p < 0.05. The concentration inducing a 50% decrease of cell viability as compared to control (IC50) was calculated using GraphPad Prism 7.03—nonlinear regression.

SW620 cells [3] = experiment: as above; format: cell-based, human
Text: as §4, §5, §6

caspase-9 in SW620 cells = experiment: Caspase-Glo assay, initiator caspase-9 activity; format: cell-based, human
Description: as §1, §2, §3

caspase-8 in SW620 cells = experiment: Caspase-Glo assay, initiator caspase-8 activity; format: cell-based, human
Description: as §1, §2, §3

[4] = system: differentiated CaCo-2 cells; experiment: Neutral red uptake (NRU) cell viability assay, 72 h; format: cell-based; details: Homo sapiens, CaCo-2 differentiated, 72 h of exposition
Description: (§7) The CaCo-2 cell line was cultured in EMEM medium supplemented with 10% heat-inactivated FBS, 1% non-essential amino acids, 1% glutamine, and 0.5% penicillin/streptomycin. The cells were grown in 96-well plates for 3 (proliferating cells) and 21 (differentiated cells) days in a humidified atmosphere containing 5% CO2 at 37 °C and subcultured every 3 days.
as §4, §5, §6

[5] = system: proliferating CaCo-2 cells; experiment: as above; format: cell-based; details: Homo sapiens, CaCo-2 proliferating, 72 h of exposition
Description: as §7, §4, §5, §6

[6] = system: colorectal cancer cell lines SW480, SW620 and CaCo-2; experiment: Antiproliferative effect (NRU assay) across colorectal cancer cell lines; format: cell-based; details: Homo sapiens; proliferating colon cancer cells (SW480, SW620, CaCo-2), 72 h; read-out: IC50 range over cell lines
Text: as §4, with “Neutral red uptake (NRU) assay was used to determine the number of viable cells after 72 h of exposition.” left out
In the NRU assay, the cells were cultured in 96-well plates (SW480 and SW620: 2500 cells/well; CaCo-2 cells: 200 cells/well) and exposed to the tested compounds for 72 h. […] The absorbance of solubilized dye was measured using the spectrophotometer Infinite M200 (Tecan, Männedorf, Switzerland) at 540 nm. […] The viabilities of treated cells were expressed as a percentage of untreated controls (100%).
All calculations were done using Microsoft Excel and GraphPad Prism 7.03 (GraphPad Software, La Jolla, CA, USA). All values were expressed as mean ± S.D. of a given number of experiments. […]

[7] = Homo sapiens, SW-620, SW620, 72 h of exposition
[8] = SW620, combination with 5-FU, OxPt or IRT
[9] = SW620, 4-hour incubation, compared to cytostatic alone
[10] = SW620, 4-h incubation, compared to cytostatic alone

| IC50 (SW480 cells; Homo sapiens) | IC50 (SW620 cells [3]; [7]) | IC50 [4] | IC50 [5] | SMILES | ROS production vs control (SW620 cells [2]) | Caspase-3/7 activity, combination with 5-FU [1] | further results |
| --- | --- | --- | --- | --- | --- | --- | --- |
| > 200 µM | > 200 µM | – | – | O=C1C[C@@H](c2ccc(O)cc2)Oc2cc(O)cc(O)c21 [NAR, naringenin, reference compound] | only a mild pro-oxidative effect | – | Suppression of effector caspases (3/7) activity, combined with all the cytostatics ([1]; SW620, combination with 5-FU, OxPt or IRT, all time intervals): up to 61.4%; Inhibition of caspases-3/7 ([1]; SW620, compound alone, 4, 8 and 24 h, vs untreated control): up to 52.7%; ROS formation, combination with OxPt (SW620 cells [2]; SW620, flavonoid + OxPt at IC50 concentrations, all time points, vs control and flavonoid alone): feeble yet significant (p < 0.05) increase in ROS formation; ROS formation, combination with IRI (SW620 cells [2]; SW620, flavonoid + irinotecan at IC50 concentrations, all time points, vs control and flavonoid alone): feeble yet significant (p < 0.05) increase in ROS formation; Decrease in caspase-9 activity (caspase-9 in SW620 cells; SW620, 4 h of exposure, vs untreated control): 19.7%; Caspase-9 activity, combined with all the cytostatics (caspase-9 in SW620 cells; [8]): marked induction; Caspase-8 activity, combined with all the cytostatics (caspase-8 in SW620 cells; [8]): marked induction |
| 40.4 µM | 43.7 µM | > 100 µM | 47 µM | COc1cc(O)c(CC=C(C)C)c2c1C(=O)CC(c1ccc(O)cc1)O2 (centres unmarked) [IXH, isoxanthohumol] | strong pro-oxidative effect within the entire 24-hour incubation | marked increase | Caspase-3/7 activity, combination with IRT [1]: marked increase; Caspase-3/7 activity, combination with OxPt [1]: marked increase; Induction of caspases-3/7 activity ([1]; vs untreated control): 50.5%; Caspase-9 activity, combination with 5-FU (caspase-9 in SW620 cells; [9]): more potent than the respective cytostatics alone; Caspase-8 activity, combination with 5-FU (caspase-8 in SW620 cells; [10]): significantly increased; Caspase-8 activity, combination with OxPt (caspase-8 in SW620 cells; [10]): significantly increased |
| 22.6 µM | 34.9 µM | – | – | O=c1[nH]cc(F)c(=O)[nH]1 [5-FU, 5-fluorouracil] | – | – | – |
| 3.6 µM | 7.3 µM | 39.3 µM | 6.2 µM | COc1cc(O)c(CC=C(C)C)c(O)c1C(=O)/C=C/c1ccc(O)cc1 [XH, Xanthohumol] | strong pro-oxidative effect within the entire 24-hour incubation | marked increase | Caspase-3/7 activity, combination with IRT [1]: marked increase; IC50 [6]: 3.6 to 7.3 µM |
| – | – | – | – | O=C1[O][Pt]2([NH][C@@H]3CCCC[C@H]3[NH]2)[O]C1=O [OxPt, oxaliplatin] | – | – | IC50 (SW480 cells): 1.1 µM; IC50 (SW620 cells [3]; SW620, 72 h of exposition): 1.9 µM |
| 56.3 µM | 24.9 µM | > 100 µM | 48.9 µM | CC(C)=CCc1c(O)cc(O)c2c1O[C@H](c1ccc(O)cc1)CC2=O [8-PN, 8-prenylnaringenin] | initially elevated ROS levels in cells and then surprisingly displayed a strong antioxidant effect at the later intervals | marked increase | Caspase-3/7 activity, combination with OxPt [1]: marked increase; Induction of caspases-3/7 activity ([1]; vs untreated control): 44.7%; Caspase-9 activity, combination with IRT (caspase-9 in SW620 cells; [9]): more potent than the respective cytostatics alone; Caspase-9 activity, combination with OxPt (caspase-9 in SW620 cells; [9]): more potent than the respective cytostatics alone; Caspase-8 activity, combination with IRT (caspase-8 in SW620 cells; [10]): significantly increased; Caspase-8 activity, combination with OxPt (caspase-8 in SW620 cells; [10]): significantly increased |
| 1.7 µM | 25.4 µM | – | – | CCc1c2c(nc3ccc(OC(=O)N4CCC(N5CCCCC5)CC4)cc13)-c1cc3c(c(=O)n1C2)COC(=O)[C@]3(O)CC [IRT, irinotecan] | – | – | – |

| SMILES | IC50 (SW480 cells; Homo sapiens) | IC50 (SW620 cells [3]; [7]) | IC50 [4] | IC50 [5] | ROS production vs control (SW620 cells [2]) | Caspase-3/7 activity, combination with 5-FU [1] | further results |
| --- | --- | --- | --- | --- | --- | --- | --- |
| CC(C)=CCc1c(O)cc2c(c1O)C(=O)C[C@@H](c1ccc(O)cc1)O2 [6-PN, 6-prenylnaringenin] | 14.8 µM | 13.7 µM | 61.9 µM | 24 µM | initially elevated ROS levels in cells and then surprisingly displayed a strong antioxidant effect at the later intervals | – | – |

Source: publication PMC6520918, “Antiproliferative Effects of Hop-derived Prenylflavonoids and Their Influence on the Efficacy of Oxaliplatine, 5-fluorouracil and Irinotecan in Human ColorectalC Cells” (Nutrients, 2019)
